Laboratory results taken from ChEMBL document CHEMBL1671702, “Baseline genotypic and phenotypic susceptibilities of HIV-1 group O to enfuvirtide” (Antimicrob Agents Chemother, 2010).
Active and inactive are the calls of the source. The rule behind the calls is not given here.

Tests used:
[1] = test system: Human immunodeficiency virus 1; assay: Antiviral activity against HIV-1 group M; details: Human immunodeficiency virus 1, group M
[2] = test system: Human immunodeficiency virus type 1 (BRU ISOLATE); assay: Antiviral activity against Human immunodeficiency virus type 1 (BRU ISOLATE); assay type: functional
[3] = test system: Human immunodeficiency virus 1; assay: Antiviral activity against HIV-1 group O expressing gp41 E119Q mutant gene; assay type: functional
[4] = test system: Human immunodeficiency virus 1; assay: Antiviral activity against HIV-1 group O expressing gp41 N42D, N43K mutant gene; assay type: functional
[5] = test system: Human immunodeficiency virus 1; assay: Antiviral activity against HIV-1 group O; details: Human immunodeficiency virus 1, group O
[6] = test system: Human immunodeficiency virus 1; assay: Antiviral activity against HIV-1 group O expressing gp41 T27A mutant gene; assay type: functional
[7] = test system: Human immunodeficiency virus 2; assay: Antiviral activity against Human immunodeficiency virus type 2 (ISOLATE ROD); assay type: functional, organism-based

enfuvirtide
IC50 [1]: 6.4 nM | Activity [2]: Active | IC50 [3]: > 1000 nM | IC50 [4]: 6.4 nM | IC50 [5]: 4 nM | IC50 [6]: > 1000 nM | Activity [7]: inactive
